Experiments:
Experiment in all cases: Test C pre-/postemergence herbicide test
[1] = test system: giant foxtail; assay type: in vivo, Setaria faberi; settings: preemergence; for Plant response rating (0 = no effect, 100 = complete control), Foxtail, Giant: 125 g ai/ha
In short: (§1)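 Seeds were planted and sprayed preemergence with test chemicals in a non-phytotoxic solvent mixture containing surfactant; postemergence treatments went onto plants 2 to 18 cm tall (1- to 4-leaf stage). After 12 to 14 days in a greenhouse, injury was rated visually against untreated controls on a 0–100 scale.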

[2] = test system: common (oilseed) sunflower; assay type: in vivo, Helianthus annuus; settings: preemergence; for Plant response rating (0 = no effect, 100 = complete control), Sunflower: 125 g ai/ha
Excerpt: Seeds of plant species selected from bermudagrass (Cynodon dactylon (L.) Pers.), Surinam grass (Urochloa decumbens (Staph) R. D. Webster, previously named Brachiaria decumbens Stapf), cocklebur (Xanthium strumarium L.), corn (Zea mays L.), large crabgrass (Digitaria sanguinalis (L.) Scop.), woolly cupgrass (Eriochloa villosa (Thunb.) Kunth), giant foxtail (Setaria faberi Herrm.), goosegrass (Eleusine indica (L.) Gaertn.), johnsongrass (Sorghum halepense (L.) Pers.), kochia (Kochia scoparia (L.) Schrad.), lambsquarters (Chenopodium album L.), morningglory (Ipomoea coccinea L.), eastern black nightshade (Solanum ptycanthum Dunal), yellow nutsedge (Cyperus esculentus L.), pigweed (Amaranthus retroflexus L.), common ragweed (Ambrosia elatior L.), soybean (Glycine max (L.) Merr.), common (oilseed) sunflower (Helianthus annuus L.) and velvetleaf (Abutilon theophrasti Medik.) were planted and treated preemergence with test chemicals formulated in a non-phytotoxic solvent mixture which included a surfactant.
At the same time, plants selected from these crop and weed species and also winter barley (Hordeum vulgare L.), blackgrass (Alopecurus myosuroides Huds.), canarygrass (Phalaris minor Retz.), chickweed (Stellaria media (L.) Vill.), downy bromegrass (Bromus tectorum L.), green foxtail (Setaria viridis (L.) Beauv.), Italian ryegrass (Lolium multiflorum Lam.), wheat (Triticum aestivum L.), wild oat (Avenafatua L.) and windgrass (Apera spica-venti (L.) Beauv.) were treated with postemergence applications of some of the test chemicals formulated in the same manner. Plants ranged in height from 2 to 18 cm (1- to 4-leaf stage) for postemergence treatments. Plant species in the flooded paddy test consisted of rice (Oryza sativa), smallflower umbrella sedge (Cyperus difformis L.), ducksalad (Heteranthera limosa (Sw.) Willd.) and barnyardgrass (Echinochloa crus-galli (L.) Beauv.) grown to the 2-leaf stage for testing. Treated plants and controls were maintained in a greenhouse for 12 to 14 days, after which time all species were compared to controls and visually evaluated. Plant response ratings, summarized in Table C, are based on a scale of 0 to 100 where 0 is no effect and 100 is complete control. A dash (-) response means no test result.

[3] = test system: bermudagrass; assay type: in vivo, Cynodon dactylon; settings: preemergence; for Plant response rating (0 = no effect, 100 = complete control), Bermudagrass: 125 g ai/ha
In short: as §1

[4] = test system: yellow nutsedge; assay type: in vivo, Cyperus esculentus; settings: preemergence; for Plant response rating (0 = no effect, 100 = complete control), Nutsedge, Yellow: 125 g ai/ha
In short: as §1

[5] = test system: velvetleaf; assay type: in vivo, Abutilon theophrasti; settings: preemergence; for Plant response rating (0 = no effect, 100 = complete control), Velvetleaf: 125 g ai/ha
In short: as §1

[6] = test system: cocklebur; assay type: in vivo, Xanthium strumarium; settings: preemergence; for Plant response rating (0 = no effect, 100 = complete control), Cocklebur: 125 g ai/ha
In short: as §1

[7] = test system: soybean; assay type: in vivo, Glycine max; settings: preemergence; for Plant response rating (0 = no effect, 100 = complete control), Soybean: 125 g ai/ha
In short: as §1

[8] = test system: pigweed; assay type: in vivo, Amaranthus retroflexus; settings: preemergence; for Plant response rating (0 = no effect, 100 = complete control), Pigweed: 125 g ai/ha
In short: as §1

[9] = test system: morningglory; assay type: in vivo, Ipomoea coccinea; set-up: key to Plant response rating, Morningglory: 0 = no effect, 100 = complete control; settings: preemergence; for Plant response rating (0 = no effect, 100 = complete control), Morningglory: 125 g ai/ha
In short: as §1

[10] = 500 g ai/ha, scale 0 to 100 (0 no effect, 100 complete control), visual, 12 to 14 days
[11] = 62 g ai/ha, scale 0 to 100, 0 no effect, 100 complete control

CCc1nn(C(C)(C)C)nc1C(=O)Nc1cccc(C(=O)NC2CC2)c1 [Compound 417]
75: Plant response rating, Velvetleaf ([5]; 62 g ai/ha, scale 0 to 100)
90: Plant response rating (0 = no effect, 100 = complete control), Foxtail, Giant [1]
0: Plant response rating, Sunflower ([2]; 62 g ai/ha, scale 0 to 100) | Plant response rating (0 = no effect, 100 = complete control), Sunflower [2] | Plant response rating, Sunflower [2, 10] | Plant response rating, Nutsedge, Yellow ([4]; 62 g ai/ha, scale 0 to 100) | Plant response rating (0 = no effect, 100 = complete control), Nutsedge, Yellow [4] | Plant response rating, Nutsedge, Yellow [4, 10] | Plant response rating, Cocklebur ([6]; 62 g ai/ha, scale 0 to 100) | Plant response rating (0 = no effect, 100 = complete control), Cocklebur [6] | Plant response rating, Cocklebur ([6]; 250 g ai/ha, scale 0-100) | Plant response rating, Cocklebur [6, 10] | Plant response rating, Soybean ([7]; 62 g ai/ha, scale 0 to 100) | Plant response rating (0 = no effect, 100 = complete control), Soybean [7] | Plant response rating, Morningglory ([9]; 62 g ai/ha, scale 0 to 100)
95: Plant response rating, Foxtail, Giant ([1]; 250 g ai/ha, scale 0-100) | Plant response rating, Morningglory [9, 10]
40: Plant response rating, Soybean [7, 10]
20: Plant response rating (0 = no effect, 100 = complete control), Morningglory [9]
65: Plant response rating, Foxtail, Giant ([1]; 62 g ai/ha, scale 0 to 100)
100: Plant response rating, Foxtail, Giant [1, 10] | Plant response rating, Bermudagrass [3, 11] | Plant response rating (0 = no effect, 100 = complete control), Bermudagrass [3] | Plant response rating, Bermudagrass ([3]; 250 g ai/ha, scale 0-100) | Plant response rating, Bermudagrass [3, 10] | Plant response rating (0 = no effect, 100 = complete control), Velvetleaf [5] | Plant response rating, Velvetleaf [5, 10] | Plant response rating, Pigweed ([8]; 62 g ai/ha, scale 0 to 100) | Plant response rating (0 = no effect, 100 = complete control), Pigweed [8] | Plant response rating, Pigweed [8, 10]

CCN(CC)C(=O)c1cccc(NC(=O)c2nn(C(C)(C)C)nc2C)c1 [Compound 418]
0: Plant response rating, Sunflower ([2]; 62 g ai/ha, scale 0 to 100) | Plant response rating (0 = no effect, 100 = complete control), Sunflower [2] | Plant response rating, Sunflower [2, 10] | Plant response rating, Nutsedge, Yellow ([4]; 62 g ai/ha, scale 0 to 100) | Plant response rating (0 = no effect, 100 = complete control), Nutsedge, Yellow [4] | Plant response rating, Nutsedge, Yellow [4, 10] | Plant response rating, Cocklebur ([6]; 62 g ai/ha, scale 0 to 100) | Plant response rating (0 = no effect, 100 = complete control), Cocklebur [6] | Plant response rating, Soybean ([7]; 62 g ai/ha, scale 0 to 100)
70: Plant response rating (0 = no effect, 100 = complete control), Morningglory [9]
100: Plant response rating, Foxtail, Giant ([1]; 250 g ai/ha, scale 0-100) | Plant response rating, Foxtail, Giant [1, 10] | Plant response rating, Bermudagrass [3, 11] | Plant response rating (0 = no effect, 100 = complete control), Bermudagrass [3] | Plant response rating, Bermudagrass ([3]; 250 g ai/ha, scale 0-100) | Plant response rating, Bermudagrass [3, 10] | Plant response rating, Velvetleaf [5, 10] | Plant response rating, Pigweed ([8]; 62 g ai/ha, scale 0 to 100) | Plant response rating (0 = no effect, 100 = complete control), Pigweed [8] | Plant response rating, Pigweed [8, 10] | Plant response rating, Morningglory [9, 10]
90: Plant response rating, Velvetleaf ([5]; 62 g ai/ha, scale 0 to 100) | Plant response rating, Soybean [7, 10]
35: Plant response rating, Cocklebur [6, 10]
95: Plant response rating (0 = no effect, 100 = complete control), Foxtail, Giant [1] | Plant response rating (0 = no effect, 100 = complete control), Velvetleaf [5]
65: Plant response rating, Foxtail, Giant ([1]; 62 g ai/ha, scale 0 to 100)
20: Plant response rating (0 = no effect, 100 = complete control), Soybean [7] | Plant response rating, Morningglory ([9]; 62 g ai/ha, scale 0 to 100)
30: Plant response rating, Cocklebur ([6]; 250 g ai/ha, scale 0-100)

Source: patent US20060069132A1, “Azolecarboxamide herbicides” (priority 2004, published 2006)
